Test results: publication PMC8286840, “Identifying SARS-CoV-2 antiviral compounds by screening for small molecule inhibitors of Nsp3 papain-like protease” (Biochemical Journal, 2021)
Where a name gives a salt, the structure may show the parent alone. Read-outs that look alike come from different tables or passages of the source. Where a SMILES comes first, the peptide text is derived from it.

Tests used:
[1] = target: T1, SARS-CoV-2 PLpro (nsp3 1564–1878) (Severe acute respiratory syndrome coronavirus 2, UniProt P0DTD1); experiment: biochemical; set-up: FRET-quenched peptide (Pro3) cleavage by PLpro, 10 min pre-incubation, slope over 20 min, normalised to no-compound control; details: low concentration screen, read-out: % of control remaining
[2] = target: T1, SARS-CoV-2 PLpro (nsp3 1564–1878); experiment: biochemical; set-up: FRET-quenched peptide (Pro3) cleavage by PLpro, 10 min pre-incubation, slope over 20 min, normalised to no-compound control; details: high concentration screen, read-out: % of control remaining

**Q.** For C[C@]12C=CC(=O)C=C1CC[C@H]1[C@@H]3C[C@@H](O)[C@](O)(C(=O)CO)[C@@]3(C)C[C@H](O)[C@@]12F [Triamcinolone], which remaining activity at 1.25 µM ([1]; Well no.=1435) is on record?
**A.** The remaining activity at 1.25 µM was 98.1%.

**Q.** What about the remaining activity at 1.25 µM ([1]; Well no.=2004) of the same compound?
**A.** The remaining activity at 1.25 µM was 108%.

**Q.** And the remaining activity at 1.25 µM ([1]; Well no.=6419)?
**A.** The remaining activity at 1.25 µM was 94.8%.

**Q.** What about the remaining activity at 3.75 µM ([2]; Well no.=1435) of the same compound?
**A.** Its remaining activity at 3.75 µM is 100%.

**Q.** And the remaining activity at 3.75 µM ([2]; Well no.=2004)?
**A.** Its remaining activity at 3.75 µM is 106%.

**Q.** And the remaining activity at 3.75 µM ([2]; Well no.=6419)?
**A.** The remaining activity at 3.75 µM was 96.2%.

**Q.** With COC(=O)Nc1nc2cc(C(=O)c3ccccc3)ccc2[nH]1 [Mebendazol] as the compound, how does the remaining activity at 1.25 µM ([1]; Well no.=1947) read?
**A.** Its remaining activity at 1.25 µM is 99%.

**Q.** And the remaining activity at 3.75 µM ([2]; Well no.=1947)?
**A.** The remaining activity at 3.75 µM was 100%.

**Q.** With NC(N)=NCCC[C@H](N)C(=O)NCC(=O)N[C@@H](CC(=O)O)C(=O)N[C@@H](CS)C(=O)O [Arg-Gly-Asp-Cys] (H-RGDC-OH) as the compound, how does the remaining activity at 1.25 µM ([1]; Well no.=8126) read?
**A.** Its remaining activity at 1.25 µM is 99.2%.

**Q.** What about the remaining activity at 3.75 µM ([2]; Well no.=8126) of the same compound?
**A.** Its remaining activity at 3.75 µM is 97.3%.

**Q.** CCC[C@@H]1C[C@@H](C(=O)N[C@@H]([C@H]2O[C@H](SC)[C@H](O)[C@@H](O)[C@H]2O)[C@@H](C)O)N(C)C1 [Lincomycin] was tested. Which remaining activity at 1.25 µM ([1]; Well no.=1549) did it give?
**A.** The remaining activity at 1.25 µM was 102%.

**Q.** And the remaining activity at 1.25 µM ([1]; Well no.=3377)?
**A.** The remaining activity at 1.25 µM was 96.3%.

**Q.** And the remaining activity at 3.75 µM ([2]; Well no.=1549)?
**A.** The remaining activity at 3.75 µM was 105%.

**Q.** What about the remaining activity at 3.75 µM ([2]; Well no.=3377) of the same compound?
**A.** Its remaining activity at 3.75 µM is 96.8%.

**Q.** For Clc1cccc(N2CCNCC2)c1 [1-(3-Chlorophenyl)piperazine dihydrochloride], which remaining activity at 1.25 µM ([1]; Well no.=36) is on record?
**A.** Its remaining activity at 1.25 µM is 106%.

**Q.** What about the remaining activity at 3.75 µM ([2]; Well no.=36) of the same compound?
**A.** Its remaining activity at 3.75 µM is 104%.

**Q.** For Clc1ccccc1C(c1ccccc1)(c1ccccc1)n1ccnc1 [Clotrimazole], which remaining activity at 1.25 µM ([1]; Well no.=372) is on record?
**A.** The remaining activity at 1.25 µM was 97.9%.

**Q.** What about the remaining activity at 3.75 µM ([2]; Well no.=372) of the same compound?
**A.** Its remaining activity at 3.75 µM is 99.9%.

**Q.** Which remaining activity at 1.25 µM ([1]; Well no.=5386) does the source give for CN[C@@H]1Cc2cccc3[nH]c(=O)n(c23)C1 [Sumanirole maleate] here?
**A.** Its remaining activity at 1.25 µM is 99.1%.

**Q.** And the remaining activity at 3.75 µM ([2]; Well no.=5386)?
**A.** The remaining activity at 3.75 µM was 104%.

**Q.** Which results are given for NCC#Cc1ccccc1 [3-Phenylpropargylamine hydrochloride]?
**A.** remaining activity at 1.25 µM ([1]; Well no.=1405): 103%; remaining activity at 3.75 µM ([2]; Well no.=1405): 101%

**Q.** How did the remaining activity at 1.25 µM ([1]; Well no.=6261) turn out when C/C(=C/C(=O)O)C(=O)O [Citraconic acid] was run?
**A.** Its remaining activity at 1.25 µM is 102%.

**Q.** What about the remaining activity at 3.75 µM ([2]; Well no.=6261) of the same compound?
**A.** Its remaining activity at 3.75 µM is 89.6%.

**Q.** How did the remaining activity at 1.25 µM ([1]; Well no.=747) turn out when CCCCCCCCCCCCCCCC(=O)NCC(COP(=O)([O-])OCC[N+](C)(C)C)OCC (racemic) [rac-2-Ethoxy-3-hexadecanamido-1-propylphosphocholine] was run?
**A.** The remaining activity at 1.25 µM was 93.3%.

**Q.** What about the remaining activity at 3.75 µM ([2]; Well no.=747) of the same compound?
**A.** Its remaining activity at 3.75 µM is 94.6%.

**Q.** What does the source list for CC(=O)OCC(=O)NCCCOc1cccc(CN2CCCCC2)c1 [Roxatidine (Acetate Hydrochloride)]?
**A.** remaining activity at 1.25 µM ([1]; Well no.=6701): 102%; remaining activity at 3.75 µM ([2]; Well no.=6701): 105%

**Q.** Which results are given for COc1cc2ncnc(Nc3ccc(OCc4ccccc4)cc3)c2cc1OC [EGFR/ErbB-2 Inhibitor]?
**A.** remaining activity at 1.25 µM ([1]; Well no.=2373): 95.9%; remaining activity at 3.75 µM ([2]; Well no.=2373): 97.2%

**Q.** Which results are given for Clc1ccc(C(c2ccc(Cl)cc2)[n+]2ccn(CC(OCc3ccc(Cl)cc3Cl)c3ccc(Cl)cc3Cl)c2)cc1 (stereo not shown) [Calmidazolium chloride]?
**A.** remaining activity at 1.25 µM ([1]; Well no.=174): 101%; remaining activity at 3.75 µM ([2]; Well no.=174): 94.5%

**Q.** What does the source list for C[C@H](CCC(=O)O)[C@H]1CC[C@H]2[C@@H]3C(=O)C[C@@H]4CC(=O)CC[C@]4(C)[C@H]3CC(=O)[C@]12C [Dehydrocholic acid]?
**A.** remaining activity at 1.25 µM ([1]; Well no.=8300): 100%; remaining activity at 3.75 µM ([2]; Well no.=8300): 99%

**Q.** C[N+]1(C)[C@@H]2CC[C@H]1C[C@@H](OC(=O)C(O)c1ccccc1)C2 (stereo partly shown) [Homatropine Methylbromide] was tested. Which remaining activity at 1.25 µM ([1]; Well no.=5080) did it give?
**A.** Its remaining activity at 1.25 µM is 98.2%.

**Q.** And the remaining activity at 3.75 µM ([2]; Well no.=5080)?
**A.** Its remaining activity at 3.75 µM is 101%.

**Q.** What does the source list for CCCCCCCC/C=C\C/C=C\C/C=C\CCCC(=O)O [5(Z), 8(Z), 11(Z)-Eicosatrienoic Acid]?
**A.** remaining activity at 1.25 µM ([1]; Well no.=4303): 104%; remaining activity at 1.25 µM ([1]; Well no.=4594): 98.9%; remaining activity at 3.75 µM ([2]; Well no.=4303): 103%; remaining activity at 3.75 µM ([2]; Well no.=4594): 100%

**Q.** Which results are given for CC(C)[C@@]1(NC(=O)[C@@H]2C=C3c4cccc5[nH]cc(c45)C[C@H]3N(C)C2)O[C@@]2(O)[C@@H]3CCCN3C(=O)[C@H](Cc3ccccc3)N2C1=O [Ergocristine]?
**A.** remaining activity at 1.25 µM ([1]; Well no.=561): 105%; remaining activity at 3.75 µM ([2]; Well no.=561): 102%

**Q.** What does the source list for CC(=O)N1CCN(C(=O)/C=C/c2ccc(Sc3ccccc3C(C)C)c([N+](=O)[O-])c2)CC1 [4-[(1E)-3-(4-acetyl-1-piperazinyl)-3-oxo-1-propenyl]-2-nitrophenyl 2-isopropylphenyl sulfide]?
**A.** remaining activity at 1.25 µM ([1]; Well no.=5662): 94.9%; remaining activity at 3.75 µM ([2]; Well no.=5662): 94.5%

**Q.** With CNCCC(Oc1ccccc1OC)c1ccccc1 (stereo not shown) [Nisoxetine hydrochloride] as the compound, how does the remaining activity at 1.25 µM ([1]; Well no.=892) read?
**A.** The remaining activity at 1.25 µM was 100%.

**Q.** What about the remaining activity at 3.75 µM ([2]; Well no.=892) of the same compound?
**A.** Its remaining activity at 3.75 µM is 99.8%.
